The results in this text go back to US10865211B2 (ENANTA PHARMACEUTICALS, INC, priority 2018, dated 2020).

The nature of data set [1]: Compound induced cellular toxicity in HepG2 cells (ATPlite). The conditions noted are these: human, three days, ATPlite 1 Step, concentration reducing total ATP levels by 50% relative to no drug controls. It is filed as cell-based. Here is the method: At day 3, post seeding cells are treated with ATPlite 1 Step according to the manufacturer's instructions.
In general terms: Cellular ATP, detected with luciferase, serves as a proxy for viable cell number.

Data set [2] has as its system 2.2.15 cells. The data set is described as follows: Antiviral activity in 2.2.15 cells: reduction of viral product accumulation (qPCR, HBsAg/HBeAg ELISA). Format: cell-based, HBV. Conditions: Hepatitis B virus, 120 h, day 5 post treatment, concentration reducing viral product accumulation in cell lysates or supernatants by 50% relative to no drug controls. Here is the method: 2.2.15 cells are passaged upon attaining confluency in DMEM/F12 media in the presence of 10% FBS, Penn/Strep, and 250 ug/mL G418. Novel compounds are 5 fold serially diluted in DMSO and added to 96 well plates containing 35,000 cells/well at a 1:200 dilution so that the final concentration of DMSO is 0.5%. On day 5, post treatment cell lysates and supernatants are harvested for analysis.
Cells are lysed using Agilent Sidestep Lysis buffer, diluted 1:100 and quantified via quantitative real time PCR. Commercially available ELISA kits are used to quantitate the viral proteins HBsAg (Alpco) or HBeAg (US Biological) by following the manufacturer's recommended protocol after diluting samples to match the linear range of their respective assays. Irrespective of readout, compound concentrations that reduce viral product accumulation in the cell lysates or supernatants by 50% relative to no drug controls (EC50) are reported; EC50 ranges are as follows: A<0.1 μM; B 0.1-1 μM; C>1 μM.

Each structure is given as a SMILES string.

`CCC1Cc2c(oc3ccccc23)-c2cc(=O)c(C(=O)O)cn21` (centres unmarked) [Example 1, 6-ethyl-2-oxo-6,7-dihydro-2H-benzofuro[2,3-a]quinolizine-3-carboxylic acid] yielded a CC50 at 3 days in data set [1] of more than 25000 nM. The molecule also yielded an EC50 in data set [2] of 100 to 1000 nM.

With `O=C(O)c1cn2c(cc1=O)-c1oc3ccccc3c1CC2c1ccccc1` (centres unmarked) [Example 2, 2-oxo-6-phenyl-6,7-dihydro-2H-benzofuro[2,3-a]quinolizine-3-carboxylic acid], in data set [1], the CC50 at 3 days is more than 25000 nM. This molecule had an EC50 in data set [2] of more than 1000 nM.

As for `CC(C)(C)[C@@H]1Cc2c(oc3ccccc23)-c2cc(=O)c(C(=O)O)cn21` [Example 3, (S)-6-(tert-butyl)-2-oxo-6,7-dihydro-2H-benzofuro[2,3-a]quinolizine-3-carboxylic acid], the 50% cytotoxic concentration (CC50) at 3 days in data set [1] is more than 25000 nM. Moreover, in data set [2], the EC50 was less than 100 nM.

With `CC(C)(C)[C@@H]1Cc2c(oc3c(OC(F)F)cccc23)-c2cc(=O)c(C(=O)O)cn21` [Example 4, (S)-6-(tert-butyl)-11-(difluoromethoxy)-2-oxo-6,7-dihydro-2H-benzofuro[2,3-a]quinolizine-3-carboxylic acid], in data set [1], the 50% cytotoxic concentration (CC50) at 3 days was more than 25000 nM. The same molecule registered an EC50 in data set [2] of less than 100 nM.

As to `CC(C)(C)[C@@H]1Cc2c(oc3cc(-c4ccoc4)ccc23)-c2cc(=O)c(C(=O)O)cn21` [Example 5, (S)-6-(tert-butyl)-10-(furan-3-yl)-2-oxo-6,7-dihydro-2H-benzofuro[2,3-a]quinolizine-3-carboxylic acid], in data set [2], the EC50 is less than 100 nM.

In turn, `CC(C)(C)[C@@H]1Cc2c(oc3cc(OC(F)F)ccc23)-c2cc(=O)c(C(=O)O)cn21` [Example 6, (S)-6-(tert-butyl)-10-(difluoromethoxy)-2-oxo-6,7-dihydro-2H-benzofuro[2,3-a]quinolizine-3-carboxylic acid] had a CC50 at 3 days in data set [1] of 10000 to 25000 nM. The molecule further gave an EC50 in data set [2] of less than 100 nM.

`CC(C)(C)[C@@H]1Cc2c(oc3cc(OC(F)F)ccc23)-c2cc(=O)c(-c3ncn[nH]3)cn21` [Example 7, (S)-6-(tert-butyl)-10-(difluoromethoxy)-3-(1H-1,2,4-triazol-5-yl)-6,7-dihydro-2H-benzofuro[2,3-a]quinolizin-2-one]: the CC50 at 3 days in data set [1] was more than 25000 nM. Further, the EC50 in data set [2] is less than 100 nM.

`CC(C)(C)[C@@H]1Cc2c(oc3c(OC(F)F)cccc23)-c2cc(=O)c(-c3ncn[nH]3)cn21` [Example 8, (S)-6-(tert-butyl)-11-(difluoromethoxy)-3-(1H-1,2,4-triazol-5-yl)-6,7-dihydro-2H-benzofuro[2,3-a]quinolizin-2-one] had a CC50 at 3 days in data set [1] of more than 25000 nM. The same molecule gave a half-maximal effective concentration (EC50) in data set [2] of less than 100 nM.

Turning to `Cn1ccc(-c2ccc3c4c(oc3c2)-c2cc(=O)c(C(=O)O)cn2[C@H](C(C)(C)C)C4)n1` [Example 9, (S)-6-(tert-butyl)-10-(1-methyl-1H-pyrazol-3-yl)-2-oxo-6,7-dihydro-2H-benzofuro[2,3-a]quinolizine-3-carboxylic acid], the EC50 in data set [2] is less than 100 nM.

Molecule `Cn1cc(-c2ccc3c4c(oc3c2)-c2cc(=O)c(C(=O)O)cn2[C@H](C(C)(C)C)C4)cn1` [Example 10, (S)-6-(tert-butyl)-10-(1-methyl-1H-pyrazol-4-yl)-2-oxo-6,7-dihydro-2H-benzofuro[2,3-a]quinolizine-3-carboxylic acid] returned a CC50 at 3 days in data set [1] of more than 25000 nM. Further, in data set [2], the EC50 is less than 100 nM.

In data set [1], `Cn1nccc1-c1ccc2c3c(oc2c1)-c1cc(=O)c(C(=O)O)cn1[C@H](C(C)(C)C)C3` [Example 11, (S)-6-(tert-butyl)-10-(1-methyl-1H-pyrazol-5-yl)-2-oxo-6,7-dihydro-2H-benzofuro[2,3-a]quinolizine-3-carboxylic acid] registered a CC50 at 3 days of more than 25000 nM. This molecule also registered an EC50 in data set [2] of less than 100 nM.

Take `CC(C)(C)[C@@H]1Cc2c(oc3cc(C#N)ccc23)-c2cc(=O)c(C(=O)O)cn21` [Example 12, (S)-6-(tert-butyl)-10-cyano-2-oxo-6,7-dihydro-2H-benzofuro[2,3-a]quinolizine-3-carboxylic acid]: in data set [1], the CC50 at 3 days is more than 25000 nM. Moreover, the EC50 in data set [2] is less than 100 nM.

On to `CC(C)(C)[C@@H]1Cc2c(oc3cc(-c4cn[nH]c4)ccc23)-c2cc(=O)c(C(=O)O)cn21` [Example 13, (S)-6-(tert-butyl)-2-oxo-10-(1H-pyrazol-4-yl)-6,7-dihydro-2H-benzofuro[2,3-a]quinolizine-3-carboxylic acid], for which the CC50 at 3 days in data set [1] was more than 25000 nM. The EC50 in data set [2] is less than 100 nM.

As to `CC(C)(C)[C@@H]1Cc2c(oc3cc(-c4ccn[nH]4)ccc23)-c2cc(=O)c(C(=O)O)cn21` [Example 14, (S)-6-(tert-butyl)-2-oxo-10-(1H-pyrazol-5-yl)-6,7-dihydro-2H-benzofuro[2,3-a]quinolizine-3-carboxylic acid], the CC50 at 3 days in data set [1] was more than 25000 nM. In data set [2], the EC50 is less than 100 nM.

As for `CC(C)(C)[C@@H]1Cc2c(oc3cc(-c4ccco4)ccc23)-c2cc(=O)c(C(=O)O)cn21` [Example 15, (S)-6-(tert-butyl)-10-(furan-2-yl)-2-oxo-6,7-dihydro-2H-benzofuro[2,3-a]quinolizine-3-carboxylic acid], the EC50 in data set [2] is less than 100 nM.

As for `CC(C)(C)[C@@H]1Cc2c(oc3cc(-c4cnco4)ccc23)-c2cc(=O)c(C(=O)O)cn21` [Example 17, (S)-6-(tert-butyl)-10-(oxazol-5-yl)-2-oxo-6,7-dihydro-2H-benzofuro[2,3-a]quinolizine-3-carboxylic acid], the CC50 at 3 days in data set [1] is more than 25000 nM. In addition, in data set [2], the EC50 was less than 100 nM.

Consider `CC(C)(C)[C@@H]1Cc2c(oc3cc(-c4cccs4)ccc23)-c2cc(=O)c(C(=O)O)cn21` [Example 18, (S)-6-(tert-butyl)-2-oxo-10-(thiophen-2-yl)-6,7-dihydro-2H-benzofuro[2,3-a]quinolizine-3-carboxylic acid], for which the EC50 in data set [2] was less than 100 nM.

`CC(C)(C)[C@@H]1Cc2c(oc3cc(-c4cnsc4)ccc23)-c2cc(=O)c(C(=O)O)cn21` [Example 19, (S)-6-(tert-butyl)-10-(isothiazol-4-yl)-2-oxo-6,7-dihydro-2H-benzofuro[2,3-a]quinolizine-3-carboxylic acid] came in with a concentration giving a half-maximal response (EC50) in data set [2] of less than 100 nM.

`CC(C)(C)[C@@H]1Cc2c(oc3cc(-c4ccsc4)ccc23)-c2cc(=O)c(C(=O)O)cn21` [Example 20, (S)-6-(tert-butyl)-2-oxo-10-(thiophen-3-yl)-6,7-dihydro-2H-benzofuro[2,3-a]quinolizine-3-carboxylic acid] displayed an EC50 in data set [2] of less than 100 nM.

`CC(C)(C)[C@@H]1Cc2c(oc3cc(-c4nccs4)ccc23)-c2cc(=O)c(C(=O)O)cn21` [Example 21, (S)-6-(tert-butyl)-2-oxo-10-(thiazol-2-yl)-6,7-dihydro-2H-benzofuro[2,3-a]quinolizine-3-carboxylic acid] registered a CC50 at 3 days in data set [1] of 10000 to 25000 nM. For the same molecule, the EC50 in data set [2] was less than 100 nM.

Molecule `CC(C)(C)[C@@H]1Cc2c(oc3cc(-c4cscn4)ccc23)-c2cc(=O)c(C(=O)O)cn21` [Example 22, (S)-6-(tert-butyl)-2-oxo-10-(thiazol-4-yl)-6,7-dihydro-2H-benzofuro[2,3-a]quinolizine-3-carboxylic acid] gave an EC50 in data set [2] of less than 100 nM.

On to `CC(C)(C)[C@@H]1Cc2c(oc3cc(C4CC4)ccc23)-c2cc(=O)c(C(=O)O)cn21` [Example 23, (S)-6-(tert-butyl)-10-cyclopropyl-2-oxo-6,7-dihydro-2H-benzofuro[2,3-a]quinolizine-3-carboxylic acid], for which, in data set [1], the CC50 at 3 days lay in the range of 10000 to 25000 nM. This molecule registered an EC50 in data set [2] of less than 100 nM.

The molecule `Cc1ccc2c3c(oc2c1)-c1cc(=O)c(C(=O)O)cn1[C@H](C(C)(C)C)C3` [Example 24, (S)-6-(tert-butyl)-10-methyl-2-oxo-6,7-dihydro-2H-benzofuro[2,3-a]quinolizine-3-carboxylic acid] came in with a CC50 at 3 days in data set [1] of more than 25000 nM. Further, the EC50 in data set [2] was less than 100 nM.

As to `CC(C)(C)[C@@H]1Cc2c(oc3c(N4CCCC4)cccc23)-c2cc(=O)c(C(=O)O)cn21` [Example 40, (S)-6-(tert-butyl)-2-oxo-11-(pyrrolidin-1-yl)-6,7-dihydro-2H-benzofuro[2,3-a]quinolizine-3-carboxylic acid], in data set [2], the EC50 is less than 100 nM.

As to `Cc1cccc2c3c(oc12)-c1cc(=O)c(C(=O)O)cn1[C@H](C(C)(C)C)C3` [Example 44, (S)-6-(tert-butyl)-11-methyl-2-oxo-6,7-dihydro-2H-benzofuro[2,3-a]quinolizine-3-carboxylic acid], the EC50 in data set [2] was 100 to 1000 nM.

With `Cn1ccc(-c2cccc3c4c(oc23)-c2c(F)c(=O)c(C(=O)O)cn2[C@H](C(C)(C)C)C4)n1` [Example 56, (S)-6-(tert-butyl)-1-fluoro-11-(1-methyl-1H-pyrazol-3-yl)-2-oxo-6,7-dihydro-2H-benzofuro[2,3-a]quinolizine-3-carboxylic acid], the EC50 in data set [2] is less than 100 nM.

`CC(C)(C)[C@@H]1Cc2c(oc3c(N4CCC(F)(F)C4)cccc23)-c2c(F)c(=O)c(C(=O)O)cn21` [Example 60, (S)-6-(tert-butyl)-11-(3,3-difluoropyrrolidin-1-yl)-1-fluoro-2-oxo-6,7-dihydro-2H-benzofuro[2,3-a]quinolizine-3-carboxylic acid] returned a 50% effective concentration (EC50) in data set [2] of less than 100 nM.

The molecule `CC(C)[C@@H]1Cc2c(oc3cc(-c4cccs4)ccc23)-c2cc(=O)c(C(=O)O)cn21` [Example 75, (S)-6-isopropyl-2-oxo-10-(thiophen-2-yl)-6,7-dihydro-2H-benzofuro[2,3-a]quinolizine-3-carboxylic acid] had an EC50 in data set [2] of less than 100 nM.

By CC50 is commonly meant the concentration giving 50% cytotoxicity. The low end stands for harm at low concentration, the high end for better tolerance by the cells. The EC50 is the concentration at which the effect is half-maximal.
